# From PMC4177084 (Journal of Thyroid Research, 2014)
# Like-named read-outs stand apart in the source and are kept apart here.
# How the values were obtained:
# Nthy-ori 3-1 cells = assay: Antiproliferation assay (WST-8); assay type: cell-based, human; details: Nthy-ori 3-1 (normal thyroid), antiproliferative, 3 days
# K1 cells = assay: Antiproliferation assay (WST-8); assay type: cell-based, human; details: for T/N: ratio of IC50 values of thyroid cancer cell lines to that of Nthy-ori 3-1 cells: K1; for IC50: K1 (DTC), antiproliferative, 3 days
# RO82-W-1 cells = assay: Antiproliferation assay (WST-8); assay type: cell-based, human; details: for T/N: ratio of IC50 values of thyroid cancer cell lines to that of Nthy-ori 3-1 cells: RO82-W-1; for IC50: RO82-W-1 (DTC), antiproliferative, 3 days; for antiproliferative activity: RO82-W-1, in words
# FTC-133 cells = assay: Antiproliferation assay (WST-8); assay type: cell-based, human; details: for T/N: ratio of IC50 values of thyroid cancer cell lines to that of Nthy-ori 3-1 cells: FTC-133; for IC50: FTC-133 (DTC), antiproliferative, 3 days
# FTC-236 cells = assay: Antiproliferation assay (WST-8); assay type: cell-based, human
# FTC-238 cells = assay: Antiproliferation assay (WST-8); assay type: cell-based, human; details: for T/N: ratio of IC50 values of thyroid cancer cell lines to that of Nthy-ori 3-1 cells: FTC-238; for IC50: FTC-238 (DTC), antiproliferative, 3 days
# COT = target: T1, COT (Homo sapiens, UniProt P41279); assay: Cell free kinase inhibition assay; assay type: biochemical
# T1 construct: purchased Carna Biosciences, Inc. (Kobe, Japan)
# Protocol: […]. Briefly, each test compound was mixed with enzyme, substrate, ATP, and Mg under appropriate buffer conditions for the ELISA or MSA. […] IC50 values (the half maximal inhibitory concentration) were calculated from concentrations versus % inhibition curves.
# TT cells = assay: Antiproliferation assay (WST-8); assay type: cell-based; details: Homo sapiens, TT, 240 h
# RO82-W-1 xenograft = assay: Human thyroid cancer xenograft model, tumor growth; assay type: in vivo, nude mice
# Protocol: Nude mice (CAnN.Cg-Foxn1nu/CrlCrlj, female, 5-6 weeks old) were obtained from Charles River Laboratories Japan (Kanagawa, Japan). Mice were maintained under specific pathogen-free conditions and housed in barrier facilities on a 12 h light/dark cycle, with food and water ad libitum. All procedures using laboratory animals were done in accordance with all applicable institutional and government regulatory guidelines and policies and were performed in an animal facility accredited by the Center for Accreditation of Laboratory Animal Care of the Japan Health Sciences Foundation.
# Tumor cells were cultured in appropriate culture mediums. Cells were harvested with 0.05% or 0.25% (w/v) trypsin/EDTA and suspended with 50% (v/v) BD Matrigel (BD Biosciences, San Jose, CA) in the mixture of culture mediums at a density of 5–10 × 10^7 cells/mL. Then, 0.1-0.2 mL of the cell suspension was inoculated subcutaneously into the right flank region of each mouse. […] The tumor size was measured in two dimensions by using a caliper, and the volume was calculated by using the formula: tumor volume (mm^3) = 1/2 length (mm) × [width (mm)]^2. The change in tumor volume in the treated group relative to that in the control group was calculated according to the following formula: ΔT/C = (ΔT/ΔC) × 100%, where ΔT and ΔC are the change in tumor volume (i.e., growth) for the treated and vehicle control group, respectively. The percentage of tumor growth inhibition (%TGI) was calculated from the formula: [(1 − ΔT/ΔC) × 100].
# Supplementary Fig. S7 Comparison of antitumor activity with antiangiogenesis activity in human differentiated thyroid cancer RO82-W-1 xenografts in nude mice.
# Nude mice bearing RO82-W-1 xenografts […]
# when tumor volumes reached about 200 mm3 (day 1). The tumor volume was measured on day 22. Each group consisted of 6 mice. Data are shown as means ± SD. * P < 0.05 compared with vehicle-treated mice.
# (b) The percentage of tumor growth inhibition (%TGI). Each group consisted of 6 mice. Antitumor activity was calculated as %TGI at day 22. Data are shown as means ± SD. * P < 0.05 compared […]
# analyze the relationship between antitumor activity (%TGI) and antiangiogenesis activity (percentage of […]
# sorafenib-treated groups were plotted on the X- and Y-axes, respectively. %TGI and %MVI was determined as described in Materials and Methods. Analysis of covariance (ANCOVA) for %TGI was examined by using %MVI as a covariate (P<0.05)
# [1] = test system: FGFR1 and its downstream effectors (FRS2, MEK, ERK); assay: Western blot of FGFR1 signaling in bFGF-stimulated RO82-W-1 cells
# [2] = FTC-236 (DTC), antiproliferative, 3 days, read-out: IC50
# T1 sequence (P41279 whole entry): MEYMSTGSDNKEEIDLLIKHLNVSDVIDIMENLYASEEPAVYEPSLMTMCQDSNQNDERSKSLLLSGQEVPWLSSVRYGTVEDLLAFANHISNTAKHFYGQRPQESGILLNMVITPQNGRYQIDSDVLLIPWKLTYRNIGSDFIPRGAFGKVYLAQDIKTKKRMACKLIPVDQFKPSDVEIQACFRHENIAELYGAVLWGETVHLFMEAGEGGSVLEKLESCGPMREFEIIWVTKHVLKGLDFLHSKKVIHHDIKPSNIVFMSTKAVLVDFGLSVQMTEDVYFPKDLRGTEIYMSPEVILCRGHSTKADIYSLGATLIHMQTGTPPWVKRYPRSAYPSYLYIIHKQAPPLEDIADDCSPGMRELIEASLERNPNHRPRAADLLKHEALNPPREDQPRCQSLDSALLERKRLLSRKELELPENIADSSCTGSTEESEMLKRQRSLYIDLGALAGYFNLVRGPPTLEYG
T/N: ratio of IC50 values of thyroid cancer cell lines to that of Nthy-ori 3-1 cells (K1 cells),T/N: ratio of IC50 values of thyroid cancer cell lines to that of Nthy-ori 3-1 cells (RO82-W-1 cells),T/N: ratio of IC50 values of thyroid cancer cell lines to that of Nthy-ori 3-1 cells (FTC-133 cells),T/N: ratio of IC50 values of thyroid cancer cell lines to that of Nthy-ori 3-1 cells (FTC-238 cells),Structure (SMILES),IC50 (Nthy-ori 3-1 cells) [µM],IC50 (K1 cells) [µM],IC50 (RO82-W-1 cells) [µM],antiproliferative activity (RO82-W-1 cells),IC50 (FTC-133 cells) [µM],IC50 (FTC-236 cells; [2]) [µM],IC50 (FTC-238 cells) [µM],"IC50 (K1 cells; Homo sapiens, 72 h) [µM]","IC50 (RO82-W-1 cells; Homo sapiens, 72 h) [µM]","IC50 (FTC-133 cells; Homo sapiens, 72 h) [µM]","IC50 (FTC-238 cells; Homo sapiens, 72 h) [µM]",other results
5.4,1.5,4.7,1.2,COc1ccc(Oc2ccnc3cc(OC)c(OC)cc23)cc1OC [Ki6783],1.7,9.2,2.5,no antiproliferative activity,8,> 30,2,,,,,
,,,,CNC(=O)c1cc(Oc2ccc(NC(=O)Nc3ccc(Cl)c(C(F)(F)F)c3)cc2)ccn1 [Sorafenib],,,,,,,,5.2,4.2,5.5,7.3,"IC50 (COT): > 10 µM; IC50 (FTC-236 cells; Homo sapiens, 72 h): 7.7 µM; IC50 (TT cells): 0.26 µM; tumor growth (RO82-W-1 xenograft; RO82-W-1 xenografts, oral once daily 21 days, doses between 30 and 300 mg/kg): inhibited tumor growth; phosphorylation of MEK ([1]; 10 μM, bFGF-stimulated): weakly inhibited; phosphorylation of FGFR1 or its other downstream effectors ([1]; up to 10 μM, bFGF-stimulated): did not clearly inhibit"
2.39,0.14,2.11,2.04,CCN(CC)CCCCNc1ncc2cc(-c3cc(OC)cc(OC)c3)c(NC(=O)NC(C)(C)C)nc2n1 [PD173074],,,,,,,,11,0.63,9.7,9.4,"IC50 (Nthy-ori 3-1 cells; Homo sapiens, 72 h): 4.6 µM; T/N: ratio of IC50 values of thyroid cancer cell lines to that of Nthy-ori 3-1 cells (FTC-236 cells; FTC-236): 0.93; IC50 (FTC-236 cells; Homo sapiens, 72 h, FTC-236 (DTC), antiproliferative, 3 days, read-out: IC50): 4.3 µM; antitumor activity (RO82-W-1 xenograft; RO82-W-1 xenograft, daily oral administration for 14 days): significant antitumor activity; phosphorylation of FGFR1, FRS2, MEK, and ERK ([1]; 1 h treatment, then bFGF 20 ng/mL and heparin 10 min): inhibited the bFGF-induced phosphorylation of FGFR1, FRS2, MEK, and ERK in a concentration-dependent manner"
2.07,0.14,1.64,1.5,COc1cc(OC)cc(-c2cc3cnc(N)nc3nc2NC(=O)NC(C)(C)C)c1 [PD166866],14,29,1.9,,23,> 30,21,,,,,
,,,,"Cc1ccc(NC(=O)c2ccc(CN3CCN(C)CC3)cc2)cc1Nc1nccc(-c2cccnc2)n1 [Glivec, imatinib]",,,,no antiproliferative activity,,,,,,,,
